Test results reported in patent publication US7005517B2, “Paramagnetic metal-phthalocyanine complex compounds and contrast agent using the same” (priority 2001, dated 2006).

Legend:
[1] = Comparative contrast imaging (spin-echo MRI) in mouse after abdominal administration of contrast agents; assay type: in vivo; details: 0.01M at 0.2 ml/10 g, scanned 40 minutes after administration, Set 1 and Set 2
Description: As for the samples for obtaining magnetic resonance imaging, the appropriate amounts of Gd-DTPA (a commercial contrast agent, Magnevist manufactured by Schering, Inc.), octa(1,4,7,10-tetraoxaundecyl)Gd-phthalocyanine (hereinafter referred to as GdPC-Fuxl-6) and octa(1,4,7,10-tetraoxaundecyl)Mn-phthalocyanine (hereinafter referred to as MnPC-Fuxl-18) were dissolved in 0.08% saline solution respectively, and the respective samples at concentration of 0.01M were used. This was in reference to the administration of commercial Gd-DTPA in human at 0.5M concentration under the condition of 0.4 ml/kg in 0.2 ml.
The above contrast agents of 0.01M concentration were administrated to mouse at 0.2 ml/10 g (female ICR, 27˜30 g, n=6). In the experiment, […], which is the maximum value in the acceptable range of the dose of the contrast agent, were injected to more clearly ascertain their effects. As for the blank for comparison purposes, the solution of 0.08% NaCl was administered. After the abdominal administration of the contrast agents, followed by a thirty-minute wait, the anesthetics (solution of a mixture of rompum, ketamin, and distilled water at 1.5:1.5:7) were injected thereto in order to sufficiently penetrate the contrast agents into the abdominal organs (the images of which were to be examined). […]

[2] = T1 & T2 measurements of contrast agents (proton relaxation times by NMR); assay type: physicochemical; details: for T1 / T2: 0.005M in 0.08% physiological saline, 10% heavy water
Description: To these samples, 10% of heavy water was added to obtain a lock signal. As for the blank, 0.08% physiological saline solution was prepared. […] The respective RD values were set sufficiently high in order to eliminate their affects to the test results. […] The respective values of vd and vc as used were those values which were sufficient for parameter-fitting.

[3] = Light absorption test under X-ray irradiation; assay type: physicochemical; details: 2.45 mole concentration, X-ray irradiated, compared to Iron and Super-Iron
Text: The compound of the present invention, GdPC-Fuxl-6, as obtained in Example 1, and the conventional X-ray contrast agents (Iron and Super-Iron) were spread onto the sticks respectively at 2.45 mole concentration, and X-ray was irradiated thereto for comparatively measuring the degree of light absorption.

[4] = Stability test for contrast agents in physiological saline (UV-spectrum, separation of metal ions); assay type: physicochemical; details: 0.01M in 0.08% physiological saline, 50° C., 24 hours
[5] = washed out via urination; cited from earlier work
[6] = Wash-out time / retention time in blood and tissues; details: in vivo
Description: The retention time (in blood) of the complex compound of said structural formula (I) according to the present invention is within the clinically effective range. Whereas DTPA-Gd, which is a conventional contrast agent, has a wash-out time of approximately 30 minutes, the compound of said structural formula (I) of the present invention has a wash-out time (from the tissues) of approximately 1 hour and 30 minutes. […] Today, in using MR angiography, which has undergone significant advancement, a pulse sequence is required. However, the contrast agent of the present invention can contrast vessels without such pulse sequence while it is also useful as a diagnostic contrast agent for intravenous administration.

Molecule | contrast effects in T1 intensified images [1] | T1 (degree of relaxation) ([2]; 80 MHz NMR) | T2 (degree of relaxation) ([2]; 80 MHz NMR) | T1 ([2]; 80 MHz NMR) | T2 ([2]; 80 MHz NMR) | T1 ([2]; 300 MHz NMR) | T2 ([2]; 300 MHz NMR) | degree of light absorption [3] | stability (no separation of Gd and Mn ions) [4] | half-life period [5] | wash-out time [6]
octa(1,4,7,10-tetraoxaundecyl)Gd-phthalocyanine [GdPC-Fuxl-6] | good contrast effects | 24.3 ms | 17.4 ms | 0.0243 s | 0.0174 s | 0.0488 s | 0.0234 s | superior characteristics with respect to light absorption | stabilized for 24 hours | – | –
O=C([O-])CN(CCN(CC(=O)[O-])CC(=O)[O-])CCN(CC(=O)[O-])CC(=O)[O-].[Gd+3] [Gd-DTPA, complex of diethylenetriaminepentaactic acid (DTPA) and gadolinium (III), reference compound] | – | – | – | 0.0484 s | 0.0441 s | 0.0370 s | 0.261 s | – | – | about 14 minutes | approximately 30 minutes
octa(1,4,7,10-tetraoxaundecyl)Mn-phthalocyanine [MnPC-Fuxl-18] | good contrast effects | 191 ms | 33.5 ms | 0.191 s | 0.0335 s | 0.317 s | 0.0207 s | – | stabilized for 24 hours | – | –
